What was measured:
[1] = target: Tyrosine-protein kinase FRK (Homo sapiens) (UniProt P42685); assay: Residual activity of FRK at 0.1 uM by microplate scintillation counting
[2] = target: Serine/threonine-protein kinase B-raf (Homo sapiens) (UniProt P15056); assay: Residual activity of Wild type B-RAF at 10 uM by microplate scintillation counting
[3] = target: CDK1/Cyclin E (Homo sapiens) (UniProt P06493+P24864); assay: Residual activity of CDK1/Cyclin E at 1 uM by microplate scintillation counting; assay type: protein-complex assay
[4] = target: T1, Serine/threonine-protein kinase D1 (Homo sapiens) (UniProt Q15139); assay: Residual activity of PKCmu at 10 uM by microplate scintillation counting
T1 sequence (whole entry): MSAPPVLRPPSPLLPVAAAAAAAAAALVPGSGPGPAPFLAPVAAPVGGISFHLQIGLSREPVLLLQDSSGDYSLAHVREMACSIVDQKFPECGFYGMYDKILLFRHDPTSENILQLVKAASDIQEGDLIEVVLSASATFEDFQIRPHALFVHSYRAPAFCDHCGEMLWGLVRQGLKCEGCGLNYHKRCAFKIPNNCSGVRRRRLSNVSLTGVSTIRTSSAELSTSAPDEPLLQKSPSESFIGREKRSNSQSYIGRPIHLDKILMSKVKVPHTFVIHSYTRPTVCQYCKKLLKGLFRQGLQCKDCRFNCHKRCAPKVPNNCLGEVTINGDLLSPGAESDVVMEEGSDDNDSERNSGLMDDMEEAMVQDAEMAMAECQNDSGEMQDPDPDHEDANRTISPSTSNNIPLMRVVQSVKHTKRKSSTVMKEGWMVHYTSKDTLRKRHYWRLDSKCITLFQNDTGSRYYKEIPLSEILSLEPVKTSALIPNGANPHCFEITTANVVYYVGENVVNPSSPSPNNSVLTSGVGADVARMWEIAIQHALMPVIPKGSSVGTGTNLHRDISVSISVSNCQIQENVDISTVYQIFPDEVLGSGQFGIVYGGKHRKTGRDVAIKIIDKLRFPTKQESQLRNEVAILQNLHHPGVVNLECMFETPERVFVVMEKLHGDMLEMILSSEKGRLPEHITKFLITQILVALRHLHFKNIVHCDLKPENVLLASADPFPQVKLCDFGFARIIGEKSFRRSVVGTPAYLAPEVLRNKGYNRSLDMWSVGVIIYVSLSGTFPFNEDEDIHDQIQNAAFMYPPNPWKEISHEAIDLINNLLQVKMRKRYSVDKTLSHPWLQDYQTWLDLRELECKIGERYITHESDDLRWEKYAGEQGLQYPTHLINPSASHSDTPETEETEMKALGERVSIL

[5] = target: Ephrin type-A receptor 2 (Homo sapiens) (UniProt P29317); assay: Residual activity of EPHA2 at 1 uM by microplate scintillation counting
Ephrin type-A receptor 2 (Homo sapiens), sequence (P29317 whole entry): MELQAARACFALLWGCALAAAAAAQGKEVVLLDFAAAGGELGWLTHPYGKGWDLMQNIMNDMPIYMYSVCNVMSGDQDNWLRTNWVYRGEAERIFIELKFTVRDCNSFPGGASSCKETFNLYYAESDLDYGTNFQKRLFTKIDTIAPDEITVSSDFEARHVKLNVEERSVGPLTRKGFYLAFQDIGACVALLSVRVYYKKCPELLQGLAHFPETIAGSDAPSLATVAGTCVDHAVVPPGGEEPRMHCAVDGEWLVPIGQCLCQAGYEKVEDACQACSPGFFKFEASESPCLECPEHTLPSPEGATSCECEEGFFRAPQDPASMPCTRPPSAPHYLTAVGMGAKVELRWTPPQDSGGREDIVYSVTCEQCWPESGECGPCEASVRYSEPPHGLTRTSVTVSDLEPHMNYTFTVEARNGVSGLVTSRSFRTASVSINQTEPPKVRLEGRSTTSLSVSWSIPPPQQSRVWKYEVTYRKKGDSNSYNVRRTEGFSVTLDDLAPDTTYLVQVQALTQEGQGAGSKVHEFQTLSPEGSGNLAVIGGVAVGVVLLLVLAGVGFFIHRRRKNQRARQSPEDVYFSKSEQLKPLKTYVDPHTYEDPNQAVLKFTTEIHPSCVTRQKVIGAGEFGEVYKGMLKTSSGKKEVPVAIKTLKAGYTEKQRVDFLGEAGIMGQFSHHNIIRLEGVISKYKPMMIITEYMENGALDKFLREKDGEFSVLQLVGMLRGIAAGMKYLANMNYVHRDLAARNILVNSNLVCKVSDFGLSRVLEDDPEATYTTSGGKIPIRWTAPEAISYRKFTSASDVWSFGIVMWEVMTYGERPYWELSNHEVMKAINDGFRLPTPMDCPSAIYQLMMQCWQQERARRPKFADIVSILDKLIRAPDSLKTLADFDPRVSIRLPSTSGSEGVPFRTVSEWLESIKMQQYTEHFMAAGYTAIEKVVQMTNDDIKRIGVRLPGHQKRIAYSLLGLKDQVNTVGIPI

[6] = target: Cyclin-dependent kinase 2/cyclin A (Homo sapiens) (UniProt P24941+P20248+P78396); assay: Residual activity of CDK2/Cyclin A at 10 uM by microplate scintillation counting; assay type: protein-complex assay
[7] = target: Tyrosine-protein kinase receptor UFO (Homo sapiens) (UniProt P30530); assay: Residual activity of AXL at 0.1 uM by microplate scintillation counting
Tyrosine-protein kinase receptor UFO (Homo sapiens), sequence (P30530 whole entry): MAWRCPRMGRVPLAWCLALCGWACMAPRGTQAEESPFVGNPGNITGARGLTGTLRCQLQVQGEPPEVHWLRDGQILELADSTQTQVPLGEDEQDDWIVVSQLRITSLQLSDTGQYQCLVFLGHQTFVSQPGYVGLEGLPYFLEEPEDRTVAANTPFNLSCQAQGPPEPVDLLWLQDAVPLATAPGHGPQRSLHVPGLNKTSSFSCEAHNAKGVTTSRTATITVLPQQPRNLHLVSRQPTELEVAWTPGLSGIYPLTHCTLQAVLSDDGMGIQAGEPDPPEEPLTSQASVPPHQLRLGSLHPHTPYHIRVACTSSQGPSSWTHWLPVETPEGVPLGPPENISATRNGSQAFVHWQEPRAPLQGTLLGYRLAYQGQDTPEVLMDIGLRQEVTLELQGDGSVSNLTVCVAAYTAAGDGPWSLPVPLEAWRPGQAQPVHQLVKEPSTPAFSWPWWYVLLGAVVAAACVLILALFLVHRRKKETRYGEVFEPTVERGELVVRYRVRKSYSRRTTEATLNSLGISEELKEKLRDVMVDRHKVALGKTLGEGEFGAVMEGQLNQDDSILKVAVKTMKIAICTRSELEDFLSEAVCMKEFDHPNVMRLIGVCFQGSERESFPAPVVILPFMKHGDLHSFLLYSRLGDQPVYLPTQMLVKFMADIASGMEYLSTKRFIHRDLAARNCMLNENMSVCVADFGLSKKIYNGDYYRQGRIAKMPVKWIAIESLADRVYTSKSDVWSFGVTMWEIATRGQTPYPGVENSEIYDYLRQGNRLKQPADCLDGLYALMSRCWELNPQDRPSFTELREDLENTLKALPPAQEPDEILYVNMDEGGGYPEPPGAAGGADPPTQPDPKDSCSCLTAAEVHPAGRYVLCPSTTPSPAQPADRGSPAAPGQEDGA

[8] = target: CDK1/Cyclin A (Homo sapiens) (UniProt P06493+P20248); assay: Residual activity of CDK1/Cyclin A at 10 uM by microplate scintillation counting; assay type: protein-complex assay
[9] = tested on: Epidermal growth factor receptor (Homo sapiens), P00533 [T790M]; assay: Residual activity of EGFR T790M mutant at 10 uM by microplate scintillation counting
[10] = target: Tyrosine-protein kinase Fer (Homo sapiens) (UniProt P16591); assay: Residual activity of FER at 1 uM by microplate scintillation counting
Tyrosine-protein kinase Fer (Homo sapiens), sequence (P16591 whole entry, looked up): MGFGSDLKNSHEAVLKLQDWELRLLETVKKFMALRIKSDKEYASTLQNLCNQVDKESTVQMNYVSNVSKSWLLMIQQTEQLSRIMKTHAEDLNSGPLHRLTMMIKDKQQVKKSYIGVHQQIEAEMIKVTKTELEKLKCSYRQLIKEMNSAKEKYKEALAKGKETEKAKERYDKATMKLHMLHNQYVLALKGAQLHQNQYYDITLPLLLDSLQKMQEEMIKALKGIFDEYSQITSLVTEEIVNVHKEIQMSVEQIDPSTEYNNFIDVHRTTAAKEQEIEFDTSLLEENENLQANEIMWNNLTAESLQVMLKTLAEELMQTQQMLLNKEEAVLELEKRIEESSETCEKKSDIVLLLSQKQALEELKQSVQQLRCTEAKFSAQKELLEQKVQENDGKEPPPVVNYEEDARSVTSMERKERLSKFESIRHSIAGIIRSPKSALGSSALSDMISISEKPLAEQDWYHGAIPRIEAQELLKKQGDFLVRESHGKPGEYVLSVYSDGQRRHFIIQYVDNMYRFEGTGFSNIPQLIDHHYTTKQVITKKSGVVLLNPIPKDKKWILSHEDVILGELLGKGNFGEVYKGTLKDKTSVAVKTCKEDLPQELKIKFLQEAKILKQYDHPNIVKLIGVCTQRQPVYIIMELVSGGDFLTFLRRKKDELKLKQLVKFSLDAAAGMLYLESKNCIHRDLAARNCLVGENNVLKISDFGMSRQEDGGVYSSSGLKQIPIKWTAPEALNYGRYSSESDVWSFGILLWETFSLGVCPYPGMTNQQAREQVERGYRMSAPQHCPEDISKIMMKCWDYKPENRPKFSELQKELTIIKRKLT

[11] = target: Protein kinase C beta type (Homo sapiens) (UniProt P05771); assay: Residual activity of PKCbeta2 at 10 uM by microplate scintillation counting
[12] = target: Protein kinase C gamma type (Homo sapiens) (UniProt P05129); assay: Residual activity of PKCgamma at 0.1 uM by microplate scintillation counting
[13] = target: Ephrin type-A receptor 7 (Homo sapiens) (UniProt Q15375); assay: Residual activity of EPHA7 at 10 uM by microplate scintillation counting
[14] = target: Cyclin-dependent kinase 1/cyclin B1 (Homo sapiens) (UniProt P06493+P14635); assay: Residual activity of CDK1/CyclinB1 at 10 uM by microplate scintillation counting; assay type: protein-complex assay
[15] = target: T2, Protein kinase C epsilon type (Homo sapiens) (UniProt Q02156); assay: Residual activity of PKCepsilon at 1 uM by microplate scintillation counting
T2 sequence (whole entry): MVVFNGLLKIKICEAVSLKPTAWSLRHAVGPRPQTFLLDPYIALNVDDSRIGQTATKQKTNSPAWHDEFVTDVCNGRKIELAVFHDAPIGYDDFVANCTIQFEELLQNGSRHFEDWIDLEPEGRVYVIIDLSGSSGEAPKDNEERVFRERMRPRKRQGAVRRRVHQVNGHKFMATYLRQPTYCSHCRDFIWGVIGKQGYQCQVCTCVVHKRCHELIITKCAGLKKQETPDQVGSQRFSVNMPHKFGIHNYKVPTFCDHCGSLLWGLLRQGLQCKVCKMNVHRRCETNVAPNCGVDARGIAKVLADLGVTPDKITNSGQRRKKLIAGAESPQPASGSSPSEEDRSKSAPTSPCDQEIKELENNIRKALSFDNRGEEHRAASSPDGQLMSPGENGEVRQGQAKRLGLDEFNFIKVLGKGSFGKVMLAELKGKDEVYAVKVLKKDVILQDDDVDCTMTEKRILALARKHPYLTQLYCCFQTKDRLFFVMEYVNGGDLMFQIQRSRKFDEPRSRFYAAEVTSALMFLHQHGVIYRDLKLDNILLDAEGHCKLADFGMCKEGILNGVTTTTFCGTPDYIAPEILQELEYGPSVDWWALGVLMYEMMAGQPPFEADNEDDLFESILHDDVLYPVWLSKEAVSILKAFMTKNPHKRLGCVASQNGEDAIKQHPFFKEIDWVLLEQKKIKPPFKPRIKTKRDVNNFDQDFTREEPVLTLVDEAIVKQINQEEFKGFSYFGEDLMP

[16] = target: Serine/threonine-protein kinase Nek7 (Homo sapiens) (UniProt Q8TDX7); assay: Residual activity of NEK7 at 10 uM by microplate scintillation counting
Serine/threonine-protein kinase Nek7 (Homo sapiens), sequence (Q8TDX7 whole entry, looked up): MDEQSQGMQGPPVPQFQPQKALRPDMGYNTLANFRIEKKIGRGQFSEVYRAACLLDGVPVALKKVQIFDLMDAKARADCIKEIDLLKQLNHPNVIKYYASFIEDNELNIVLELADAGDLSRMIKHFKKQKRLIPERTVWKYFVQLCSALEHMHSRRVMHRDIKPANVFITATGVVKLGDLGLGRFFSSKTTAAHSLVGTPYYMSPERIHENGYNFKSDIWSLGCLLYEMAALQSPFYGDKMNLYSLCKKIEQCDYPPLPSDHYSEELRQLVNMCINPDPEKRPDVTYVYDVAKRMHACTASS

[17] = target: Focal adhesion kinase 1 (Homo sapiens) (UniProt Q05397); assay: Residual activity of FAK at 0.1 uM by microplate scintillation counting
Focal adhesion kinase 1 (Homo sapiens), sequence (Q05397 2-1052 limits assumed): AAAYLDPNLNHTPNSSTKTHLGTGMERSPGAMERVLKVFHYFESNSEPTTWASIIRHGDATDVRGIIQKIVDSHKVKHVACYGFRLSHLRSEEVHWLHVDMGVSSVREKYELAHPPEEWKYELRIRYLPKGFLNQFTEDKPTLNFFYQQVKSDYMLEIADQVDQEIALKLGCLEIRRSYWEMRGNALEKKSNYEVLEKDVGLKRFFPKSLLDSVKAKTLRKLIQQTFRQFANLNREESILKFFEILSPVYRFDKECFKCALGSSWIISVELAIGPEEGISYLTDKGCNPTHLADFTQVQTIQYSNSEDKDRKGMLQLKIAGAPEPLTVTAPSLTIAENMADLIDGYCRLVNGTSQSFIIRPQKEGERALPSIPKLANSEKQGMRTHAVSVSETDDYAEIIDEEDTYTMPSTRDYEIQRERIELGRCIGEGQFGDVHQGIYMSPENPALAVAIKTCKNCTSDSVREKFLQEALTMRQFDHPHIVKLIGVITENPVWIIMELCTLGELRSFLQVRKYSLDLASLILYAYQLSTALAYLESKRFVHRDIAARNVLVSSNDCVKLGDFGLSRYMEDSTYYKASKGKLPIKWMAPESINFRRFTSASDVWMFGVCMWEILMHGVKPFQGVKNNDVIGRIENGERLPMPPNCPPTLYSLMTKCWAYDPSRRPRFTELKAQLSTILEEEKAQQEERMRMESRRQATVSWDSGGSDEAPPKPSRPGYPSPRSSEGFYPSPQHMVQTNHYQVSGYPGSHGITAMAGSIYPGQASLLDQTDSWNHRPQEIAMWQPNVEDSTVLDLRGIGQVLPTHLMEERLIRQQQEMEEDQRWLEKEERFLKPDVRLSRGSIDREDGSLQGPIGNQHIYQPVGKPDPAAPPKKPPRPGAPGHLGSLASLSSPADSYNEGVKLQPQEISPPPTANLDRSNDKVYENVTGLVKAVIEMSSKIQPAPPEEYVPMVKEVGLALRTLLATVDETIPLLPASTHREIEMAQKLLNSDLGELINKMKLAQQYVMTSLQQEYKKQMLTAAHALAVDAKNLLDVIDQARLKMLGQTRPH

[18] = tested on: Mast/stem cell growth factor receptor Kit (Homo sapiens), P10721 [T670I]; assay: Residual activity of KIT T670I mutant at 0.1 uM by microplate scintillation counting
Mast/stem cell growth factor receptor Kit (Homo sapiens), P10721 [T670I], sequence (P10721 whole entry T670I): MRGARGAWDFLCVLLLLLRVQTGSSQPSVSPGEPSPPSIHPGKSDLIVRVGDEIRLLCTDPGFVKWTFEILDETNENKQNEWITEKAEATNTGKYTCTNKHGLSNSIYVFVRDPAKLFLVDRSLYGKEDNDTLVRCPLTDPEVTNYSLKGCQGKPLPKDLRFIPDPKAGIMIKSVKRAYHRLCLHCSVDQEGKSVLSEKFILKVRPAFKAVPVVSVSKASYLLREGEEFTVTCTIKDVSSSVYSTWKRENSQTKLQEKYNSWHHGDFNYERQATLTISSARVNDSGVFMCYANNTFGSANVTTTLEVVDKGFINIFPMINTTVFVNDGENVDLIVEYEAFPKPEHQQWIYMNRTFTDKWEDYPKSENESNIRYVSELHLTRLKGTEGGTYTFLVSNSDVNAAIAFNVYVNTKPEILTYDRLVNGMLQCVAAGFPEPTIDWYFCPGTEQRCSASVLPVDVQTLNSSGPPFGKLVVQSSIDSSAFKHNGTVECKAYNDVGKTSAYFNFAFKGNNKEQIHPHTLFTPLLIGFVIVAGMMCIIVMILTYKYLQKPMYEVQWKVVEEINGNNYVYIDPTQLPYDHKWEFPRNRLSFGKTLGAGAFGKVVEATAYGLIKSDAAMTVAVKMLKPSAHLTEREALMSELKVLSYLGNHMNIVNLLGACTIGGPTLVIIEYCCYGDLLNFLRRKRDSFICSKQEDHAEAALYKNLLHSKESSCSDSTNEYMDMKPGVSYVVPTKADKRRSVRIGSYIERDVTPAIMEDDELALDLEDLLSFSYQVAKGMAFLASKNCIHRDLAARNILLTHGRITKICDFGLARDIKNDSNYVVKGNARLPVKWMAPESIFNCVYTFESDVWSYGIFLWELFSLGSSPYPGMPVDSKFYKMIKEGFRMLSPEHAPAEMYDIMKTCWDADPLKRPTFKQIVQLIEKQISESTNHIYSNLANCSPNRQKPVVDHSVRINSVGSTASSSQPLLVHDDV

residual activity [1] [%]	residual activity [2] [%]	residual activity [3] [%]	residual activity [4] [%]	residual activity [5] [%]	residual activity [6] [%]	residual activity [7] [%]	residual activity [8] [%]	residual activity [9] [%]	residual activity [10] [%]	residual activity [11] [%]	residual activity [12] [%]	residual activity [13] [%]	residual activity [14] [%]	residual activity [15] [%]	residual activity [16] [%]	residual activity [17] [%]	residual activity [18] [%]	Compound
100	51	85	126	97	79	96	117	96	103	69	99	108	96	80	224	99	113	COc1cc2c(Oc3ccc(-c4nc5ccccc5s4)cc3)ncnc2cc1OCCCN1CCCC1
99	74	90	111	109	73	104	112	41	96	53	101	49	100	90	239	98	97	COc1cc2c(Oc3ccc(-c4nc5ccccc5s4)cc3F)ncnc2cc1OCCCN1CCN(C)CC1
100	70	88	122	111	84	117	129	88	107	77	120	116	111	94	254	94	103	COc1cc2c(Oc3ccc(-c4nc5ccccc5s4)cc3)ncnc2cc1OCCCN1CCN(C)CC1
